Experimental data reported in patent US5004758A, “Water soluble camptothecin analogs useful for inhibiting the growth of animal tumor cells” (priority 1988, dated 1991).
Values joined by “and” are separate entries in the source; they are usually repeats but may differ in a detail not shown here. Equal entries are not always repeated. Structures can show the parent of a compound that is named as a salt. Where two headings read alike, the source gives them in different places.

Legend:
sc M5076 sarcoma = experiment: sc-implanted M5076 sarcoma in mice; assay type: in vivo, mouse; conditions: for Mice without Palpable Tumors: B/ip
Excerpt: (§1) The inoculum varies with the tumor.

[1] = test system: sc Madison lung carcinoma; experiment: sc-implanted Madison lung carcinoma in mice; assay type: in vivo, mouse
Excerpt: as §1

sc colon carcinoma 26 = experiment: sc-implanted colon carcinoma 26 in mice; assay type: in vivo, mouse; conditions: for Tumor growth inhibition (TGI): sc Colon 26, B/ip (Days 1, 5, 9 and 13)
Excerpt: as §1

iv P388 leukemia = conditions: mouse, in vivo
Excerpt: Tumors used in these studies P388 leukemia, L1210 leukemia and Lewis lung carcinoma--are maintained by serial transplantation in syngeneic strains of mice, DBA/2 for the leukemias and C57B1/6 for Lewis lung carcinoma. The leukemias are serially transplanted i.p. as ascites cell suspensions while the Lewis lung carcinoma is serially transplanted as a s.c. solid tumor.
For therapeutic trials, tumors were aseptically removed from donor mice and prepared as suspensions for implantation into test animals which for each tumor are syngeneic female F1 hybrid B6D2F1 mice (C57B1/6×DBA/2). The inoculum level varies with the type of tumor: P388 leukemia is inoculated at 10^6 cells per mouse, L1210 leukemia at 10^5 or 10^6 cells per mouse, and Lewis lung carcinoma at 0.25 ml of a 10 percent (w:v) brei. […] After tumor inoculation, mice are randomized to treatment groups of 6 to 8 mice each. In each experiment, there are three groups of untreated control mice.
Drugs are dissolved or suspended in appropriate aqueous vehicles and given i.p. or i.v. on various treatment schedules over a range of dosage levels. Animals are housed in shoebox cages and monitored daily for mortality for 30 (L1210), 45 (P388) or 60 (Lewis lung) days.

in vivo = conditions: mouse, ip
Description: (§2) For in vivo studies L1210 cells were implanted i.p. (10^6 per mouse)
(§3) and drugs were administered i.p. on Days 1 and 5. Increase in lifespan
(§4) (ILS) was based on median survival time of groups of 6 mice treated at th
maximally tolerated dose of the drugs.

ip L1210 leukemia = experiment: ip-implanted L1210 leukemia in mice; conditions: mouse, in vivo, ip;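 also: each mouse received 10^6 L1210 cells intraperitoneally, with drug treatment also given by the i.p. route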
Description: as §2, §3, §4
maximally tolerated dose of the drugs.

P388/Doxorubicin = experiment: ip P388/Doxorubicin multidrug resistant subline in mice; conditions: for ILS / NCK (net tumor cell kill): P388/Doxorubicin, ip, Days 1 and 5
Description: Increase in lifespan (ILS) is based on median survival time of groups of 6 mice. Net tumor cell kill (NCK) is calculated from median survival time by standard methods, since survival time is a linear function of the log tumor cell burden.
For the leukemias, these tumors are maintained in DBA/2 mice. […] The leukemias and the M5076 sarcoma are serially transplanted i.p. as ascites cell suspensions while the B16 melanoma lines and the colon carcinoma 26 are serially transplanted as s.c. solid tumors.
For therapeutic trials, tumors are aseptically removed from donor mice and prepared as suspensions for implantation ip into test animals. […] The test animals for the other tumor models are syngeneic female F1 hybrid B6D2F1 mice (C57B1/6 x DBA/2). The inoculum level varies with the type of tumor: P388 leukemia is inoculated at 10^6 cells per mouse, L1210 leukemia at 10^5 or 10^6 cells per mouse, M5076 sarcoma at 5×10^6 cells per mouse. […] After tumor inoculation, mice randomized to treatment groups comprised of 6-8 mice each. In each experiment, there are three groups of untreated control mice. Drugs are dissolved or suspended in appropriate aqueous vehicles and given by a variety of routes and schedules of administration over a range of dose levels. Animals are housed in shoebox cages and are monitored daily for mortality for 30 (L1210), 45 (P388) or 60 (B16, M5076, colon 26) days.

Structure (SMILES): CC[C@@]1(O)C(=O)OCc2c1cc1n(c2=O)Cc2cc3c(CN(C)C)c(O)ccc3nc2-1 [Compound No. 1S, (20 S) 9-Dimethylaminomethyl-10-hydroxycamptothecin Acetate Salt]
- Tumor growth inhibition (TGI) (sc M5076 sarcoma; mouse, in vivo, 15 mg/kg): 100%
- Tumor growth inhibition (TGI) (sc M5076 sarcoma; mouse, in vivo, 25 mg/kg): toxic
- Increase in Lifespan (ILS) or Inhibition of Tumor Growth (TGI) (sc M5076 sarcoma; mouse, in vivo, sc): 100 % TGI
- Mice without Palpable Tumors (sc M5076 sarcoma; sc M5076, 3.2 mg/kg/injection): 2/8
- Mice without Palpable Tumors (sc M5076 sarcoma; sc M5076, 5.4 mg/kg/injection): 3/8
- Mice without Palpable Tumors (sc M5076 sarcoma; sc M5076, 9 mg/kg/injection): 6/8
- Mice without Palpable Tumors (sc M5076 sarcoma; sc M5076, 15 mg/kg/injection): 8/8
- prolonged lifespan (sc M5076 sarcoma; sc M5076, ip Days 1, 5, 9 and 13): 31%
- TGI at the maximally tolerated dose ([1]; mouse, in vivo): 74
- Tumor growth inhibition (TGI) ([1]; mouse, in vivo, 1.5 mg/kg): 0%
- Tumor growth inhibition (TGI) ([1]; mouse, in vivo, 3 mg/kg): 0%
- Tumor growth inhibition (TGI) ([1]; mouse, in vivo, 6 mg/kg): 21%
- Tumor growth inhibition (TGI) ([1]; mouse, in vivo, 12 mg/kg): 0%
- Mice without Palpable Tumors ([1]; mouse, in vivo, 24 mg/kg): 1/8
- Increase in Lifespan (ILS) or Inhibition of Tumor Growth (TGI) ([1]; mouse, in vivo, sc): 85 % TGI
- inhibition of tumor growth at the maximally tolerated dose ([1]; mouse, in vivo, sc): > 70
- Tumor growth inhibition (TGI) ([1]; sc Madison lung, C/iv (every 3 hours x4 on Days 1, 5 and 9), 0.19 mg/kg/injection): 0%
- Tumor growth inhibition (TGI) ([1]; sc Madison lung, C/iv (every 3 hours x4 on Days 1, 5 and 9), 0.38 mg/kg/injection): 41%
- Tumor growth inhibition (TGI) ([1]; sc Madison lung, C/iv (every 3 hours x4 on Days 1, 5 and 9), 0.75 mg/kg/injection): 63%
- Tumor growth inhibition (TGI) ([1]; sc Madison lung, C/iv (every 3 hours x4 on Days 1, 5 and 9), 1.5 mg/kg/injection): 85%
- Tumor growth inhibition (TGI) ([1]; sc Madison lung, C/iv (every 3 hours x4 on Days 1, 5 and 9), 3 mg/kg/injection): toxic
- Mice without Palpable Tumors ([1]; sc Madison lung, C/iv, 0.75 mg/kg/injection): 1/8
- Mice without Palpable Tumors ([1]; sc Madison lung, C/iv, 1.5 mg/kg/injection): 3/8
- inhibition of tumor growth at the maximally tolerated dose (sc colon carcinoma 26; mouse, in vivo, sc): > 70
- Tumor growth inhibition (TGI) (sc colon carcinoma 26; 5 mg/kg/injection): 39%
- Tumor growth inhibition (TGI) (sc colon carcinoma 26; 10 mg/kg/injection): 72%
- Tumor growth inhibition (TGI) (sc colon carcinoma 26; 20 mg/kg/injection): toxic
- Increase in Lifespan (ILS) or Inhibition of Tumor Growth (TGI) (sc colon carcinoma 26; sc Colon Carcinoma 26, optimal doses and optimal schedules): 72 % TGI
- Increase in lifespan (ILS) (iv P388 leukemia; 3.2 mg/kg): 42%
- Increase in lifespan (ILS) (iv P388 leukemia; 5.4 mg/kg): 58%
- ILS (iv P388 leukemia; 15 mg/kg): 125
- Increase in lifespan (ILS) (iv P388 leukemia; 15 mg/kg): 132%
- cures (iv P388 leukemia; 15 mg/kg): 1/6
- Long-Term Survivors (iv P388 leukemia; 25 mg/kg): 2/6
- Increase in Lifespan (ILS) or Inhibition of Tumor Growth (TGI) (iv P388 leukemia; iv): Curative
- Increase in lifespan (ILS) (iv P388 leukemia; iv, 7.9 mg/kg): 65%
- Increase in lifespan (ILS) (iv P388 leukemia; iv, 14 mg/kg): 145%
- Long-Term Survivors (iv P388 leukemia; iv, 19 mg/kg): 2/6
- Increase in lifespan (ILS) (iv P388 leukemia; iv, 25 mg/kg): toxic
- MTD (in vivo): 15 mg/kg
- Increase in Lifespan (ILS) or Inhibition of Tumor Growth (TGI) (ip L1210 leukemia): Curative
- Increase in lifespan (ILS) (ip L1210 leukemia; 3.2 mg/kg): 31%
- Increase in lifespan (ILS) (ip L1210 leukemia; 5.4 mg/kg): 81%
- Increase in lifespan (ILS) (ip L1210 leukemia; 9 mg/kg): 138%
- Increase in lifespan (ILS) (ip L1210 leukemia; 15 mg/kg): 219%
- Long-Term Survivors (ip L1210 leukemia; 15 mg/kg): 2/6
- Increase in lifespan (ILS) (ip L1210 leukemia; 25 mg/kg): toxic
- long term survivors at the maximally tolerated doses (ip L1210 leukemia; Acetate Salt): 1/6 and 0/6 and 2/6 and 5/6
- ILS (P388/Doxorubicin; 3.2 mg/kg): 14%
- NCK (net tumor cell kill) (P388/Doxorubicin; 3.2 mg/kg): 0 log
- ILS (P388/Doxorubicin; 5.4 mg/kg): 33%
- NCK (net tumor cell kill) (P388/Doxorubicin; 5.4 mg/kg): 0 log
- ILS (P388/Doxorubicin; 9 mg/kg): 90%
- NCK (net tumor cell kill) (P388/Doxorubicin; 9 mg/kg): 2.2 log
- ILS (P388/Doxorubicin; 15 mg/kg): 176%
- NCK (net tumor cell kill) (P388/Doxorubicin; 15 mg/kg): 6.0 log
- ILS (P388/Doxorubicin; 25 mg/kg): toxic
- sensitivity / resistance of subline (P388/Doxorubicin; P388/doxorubicin in mice): retained sensitivity
